Results on one compound are retold here after patent publication US9446127B2, “Compositions including androgen receptor degradation (ARD) enhancers and methods of prophylactic or therapeutic treatment of skin disorders and hair loss” (AndroScience Corporation, priority 2007, dated 2016).

In one experiment the test system is LNCaP tumor. As to the kind of experiment: LNCaP xenograft tumor growth in nude mice. In kind it is in vivo. The note with it: 100 mg/kg/day ip three times per week, 7 weeks. The method, then:
In the related in vivo studies, LNCaP human prostate tumor cells are xenografted into nude mice by subcutaneous injection (2×10^6 per site). Mice are subsequently treated, by intraperitoneal injection, with either the vehicle solution as control or the test compounds (ASC-J9 at a dose of 100 milligrams per kilogram body weight), three times a week for 7 weeks. Tumor volume is measured twice a week over the next 7 weeks. […] Data in FIG. 12 show two nude mice received xenografted LNCaP tumor and one treated with vehicle solution (left) and the other with ASC-J9 (right). A significant reduction in tumor size and PSA content in plasma were detected in animal received ASC-J9 treatment. Such results can be taken as a strong indication that the suppression of AR activity and the resulting reduction of tumor growth induced by AR-degrading compounds such as ASC-J9, may be translated into a practical use for treating or preventing diseases and disorders related to AR activity, such as prostate and other cancers.
Two million LNCaP tumor cells were inoculated, subcutaneously, into the left flank of nude mice. In the experimental animals, the nude mice were give an intraperitoneal (ip) injection of compound ASC-J9 at 100 mg/kg/day three times per week or with vehicle control only. After 7 weeks of treatment the tumors were excised, weighed and compared. […] In addition, PSA (prostate specific antigen) level in plasma from animal treated with ASC-J9 reduced 90% (reduce from 57.0 ng/ml to 7.6 ng/ml).

The test system of experiment [1] is testosterone-induced hair growth suppression. As to the kind of experiment: Testosterone-induced alopecia model, hair re-growth. In kind it is in vivo, C57BL/6J mice. The note with it: testosterone mornings. The method, then:
C57BL/6J mice were used in this animal model for hair loss and regrowth (Uno et al. (1990) J. Cutaneous Aging & Cosm. Derm., 1:193, which is incorporated by reference in its entirety herein). Six-week-old male mice (6 to 7 animals per group) were shaved with an electric clipper, and then treated with a hair-removal cream for 1 to 2 minutes. […] One day after hair removal, a first group of animals each received 100 microliters of a 1% testosterone solution in ethanol, applied topically to the shaved area, once each morning for twenty consecutive days. A second group of animals each received 100 microliters of vehicle (ethanol) alone, applied topically to the shaved area, once each morning for twenty consecutive days. The first group of mice (testosterone-treated) were divided further into a control group and a treatment group. Also beginning one day after hair removal, each mouse in the control group received 100 microliters of a control solution (60% ethanol, 20% propylene glycol, and 20% water) and each mouse in the treatment group received 100 microliters of the test compound, ASC-J9 (0.02% in the same 60% ethanol, 20% propylene glycol, and 20% water solution), applied topically to the shaved area, once each afternoon for twenty consecutive days. Hair re-growth in the shaved areas was observed and photographed at 0, 4, 8, 11 and 14 days after beginning of the topical treatments.

Consider `COc1ccc(C=CC(=O)C=C(O)C=Cc2ccc(OC)c(OC)c2)cc1OC` [ASC-J9, 5-hydroxy-1,7-bis(3,4-dimethoxyphenyl)-1,4,6-heptatrien-3-one], for which the “reduction of PSA level in plasma” value with LNCaP tumor turned out to be 90%. In the experiment with LNCaP tumor (vs vehicle control), the “reduction in tumor size” value was found to be 75%. The “PSA (prostate specific antigen) level in plasma” value in the experiment with LNCaP tumor (reduced from 57.0 ng/ml) came out at 7.6 ng/mL. The compound further gave a tumor weight in the experiment on LNCaP tumor (vehicle control 0.694 g) of 0.172 g. In addition, the “hair re-growth in shaved areas” value in experiment [1] (0.02% topical afternoons, day 8 to day 17) is listed as “rapid re-growth of hair”; in experiment [1] (topical afternoons, after 20 days) it was “fully re-growth of hair”.
